Values joined by “and” are separate entries in the source; they are usually repeats but may differ in a detail not shown here. Equal entries are not always repeated.
Experiments:
Assay in all cases: radiometric filter-binding kinase assay, Kinase HotSpot
Conditions in all cases: compound 0.5 µM; ATP 10 µM
ADRBK2 (human) = ADRBK2 (human) (UniProt P35626)
AURKB (human) = AURKB (human) (UniProt Q96GD4)
BMX (human) = BMX (human) (UniProt P51813)
CDK1 CCNA2 (human) = CDK1 CCNA2 (human) (UniProt P06493+P20248)
CDK9 CCNK (human) = CDK9 CCNK (human) (UniProt O75909+P50750)
CDK9 CCNT1 (human) = CDK9 CCNT1 (human) (UniProt P50750+O60563)
CHEK2 (human) = CHEK2 (human) (UniProt O96017)
CSK (human) = CSK (human) (UniProt P41240)
DAPK1 (human) = DAPK1 (human) (UniProt P53355)
DMPK (human) = DMPK (human) (UniProt Q09013)
EPHA4 (human) = EPHA4 (human) (UniProt P54764)
EPHA7 (human) = EPHA7 (human) (UniProt Q15375)
EPHA8 (human) = EPHA8 (human) (UniProt P29322)
GRK5 (human) = GRK5 (human) (UniProt P34947)
INSR (human) = INSR (human) (UniProt P06213)
[1] = target: JAK1 JH1 catalytic (human) (UniProt P23458)
JAK3 JH1 JH2 (human) = JAK3 JH1 JH2 (human) (UniProt P52333)
KIT (human) = KIT (human) (UniProt P10721)
LRRK2 (human) = LRRK2 (human) (UniProt Q5S007)
MAP3K5 (human) = MAP3K5 (human) (UniProt Q99683)
MAP4K2 (human) = MAP4K2 (human) (UniProt Q12851)
MAPKAPK2 (human) = MAPKAPK2 (human) (UniProt P49137)
MATK (human) = MATK (human) (UniProt P42679)
MELK (human) = MELK (human) (UniProt Q14680)
NEK6 (human) = NEK6 (human) (UniProt Q9HC98)
NTRK3 (human) = NTRK3 (human) (UniProt Q16288)
NUAK1 (human) = NUAK1 (human) (UniProt O60285)
PAK7 (human) = PAK7 (human) (UniProt Q9P286)
PHKG2 (human) = PHKG2 (human) (UniProt P15735)
PIM2 (human) = PIM2 (human) (UniProt Q9P1W9)
PRKCH (human) = PRKCH (human) (UniProt P24723)
PRKD1 (human) = PRKD1 (human) (UniProt Q15139)
PRKG1 (human) = PRKG1 (human) (UniProt Q13976)
SGK3 (human) = SGK3 (human) (UniProt Q96BR1)
STK24 (human) = STK24 (human) (UniProt Q9Y6E0)
STK3 (human) = STK3 (human) (UniProt Q13188)
STK39 (human) = STK39 (human) (UniProt Q9UEW8)
SYK (human) = SYK (human) (UniProt P43405)
TNK2 (human) = TNK2 (human) (UniProt Q07912)
TYRO3 (human) = TYRO3 (human) (UniProt Q06418)
YES1 (human) = YES1 (human) (UniProt P07947)
HIPK3 (human) = HIPK3 (human) (UniProt Q9H422)

JAK1 JH1 catalytic (human), sequence (P23458 whole entry, looked up): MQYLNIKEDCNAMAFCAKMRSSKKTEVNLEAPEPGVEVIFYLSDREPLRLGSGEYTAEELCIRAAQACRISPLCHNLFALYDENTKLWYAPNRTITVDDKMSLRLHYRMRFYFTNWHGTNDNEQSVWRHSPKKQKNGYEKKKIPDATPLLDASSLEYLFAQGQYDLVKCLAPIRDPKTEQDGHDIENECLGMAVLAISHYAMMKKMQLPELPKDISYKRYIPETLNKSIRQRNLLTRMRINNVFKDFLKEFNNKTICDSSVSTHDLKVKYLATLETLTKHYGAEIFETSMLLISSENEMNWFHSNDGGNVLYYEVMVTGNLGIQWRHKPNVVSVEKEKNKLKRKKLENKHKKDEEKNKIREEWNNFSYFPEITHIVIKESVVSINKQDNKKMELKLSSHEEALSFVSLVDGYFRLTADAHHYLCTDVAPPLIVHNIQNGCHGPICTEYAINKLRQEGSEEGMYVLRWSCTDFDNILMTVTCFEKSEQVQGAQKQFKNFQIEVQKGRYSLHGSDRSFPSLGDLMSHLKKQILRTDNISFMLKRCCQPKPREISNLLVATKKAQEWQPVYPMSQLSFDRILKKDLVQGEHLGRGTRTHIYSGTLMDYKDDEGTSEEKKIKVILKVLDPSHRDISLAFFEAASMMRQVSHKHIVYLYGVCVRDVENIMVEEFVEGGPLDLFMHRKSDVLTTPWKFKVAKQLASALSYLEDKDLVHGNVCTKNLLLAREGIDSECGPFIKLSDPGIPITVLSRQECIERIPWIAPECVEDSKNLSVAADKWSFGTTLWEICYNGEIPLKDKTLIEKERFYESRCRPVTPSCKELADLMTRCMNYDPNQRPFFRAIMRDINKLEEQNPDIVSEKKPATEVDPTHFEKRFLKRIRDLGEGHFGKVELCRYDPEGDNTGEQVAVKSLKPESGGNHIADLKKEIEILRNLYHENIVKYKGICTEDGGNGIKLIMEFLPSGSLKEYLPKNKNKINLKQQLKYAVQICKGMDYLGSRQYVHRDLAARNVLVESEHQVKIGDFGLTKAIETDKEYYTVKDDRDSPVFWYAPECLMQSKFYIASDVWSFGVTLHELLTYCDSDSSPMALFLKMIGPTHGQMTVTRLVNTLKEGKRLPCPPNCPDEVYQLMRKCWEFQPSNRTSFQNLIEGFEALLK
LRRK2 (human), sequence (Q5S007 whole entry, looked up): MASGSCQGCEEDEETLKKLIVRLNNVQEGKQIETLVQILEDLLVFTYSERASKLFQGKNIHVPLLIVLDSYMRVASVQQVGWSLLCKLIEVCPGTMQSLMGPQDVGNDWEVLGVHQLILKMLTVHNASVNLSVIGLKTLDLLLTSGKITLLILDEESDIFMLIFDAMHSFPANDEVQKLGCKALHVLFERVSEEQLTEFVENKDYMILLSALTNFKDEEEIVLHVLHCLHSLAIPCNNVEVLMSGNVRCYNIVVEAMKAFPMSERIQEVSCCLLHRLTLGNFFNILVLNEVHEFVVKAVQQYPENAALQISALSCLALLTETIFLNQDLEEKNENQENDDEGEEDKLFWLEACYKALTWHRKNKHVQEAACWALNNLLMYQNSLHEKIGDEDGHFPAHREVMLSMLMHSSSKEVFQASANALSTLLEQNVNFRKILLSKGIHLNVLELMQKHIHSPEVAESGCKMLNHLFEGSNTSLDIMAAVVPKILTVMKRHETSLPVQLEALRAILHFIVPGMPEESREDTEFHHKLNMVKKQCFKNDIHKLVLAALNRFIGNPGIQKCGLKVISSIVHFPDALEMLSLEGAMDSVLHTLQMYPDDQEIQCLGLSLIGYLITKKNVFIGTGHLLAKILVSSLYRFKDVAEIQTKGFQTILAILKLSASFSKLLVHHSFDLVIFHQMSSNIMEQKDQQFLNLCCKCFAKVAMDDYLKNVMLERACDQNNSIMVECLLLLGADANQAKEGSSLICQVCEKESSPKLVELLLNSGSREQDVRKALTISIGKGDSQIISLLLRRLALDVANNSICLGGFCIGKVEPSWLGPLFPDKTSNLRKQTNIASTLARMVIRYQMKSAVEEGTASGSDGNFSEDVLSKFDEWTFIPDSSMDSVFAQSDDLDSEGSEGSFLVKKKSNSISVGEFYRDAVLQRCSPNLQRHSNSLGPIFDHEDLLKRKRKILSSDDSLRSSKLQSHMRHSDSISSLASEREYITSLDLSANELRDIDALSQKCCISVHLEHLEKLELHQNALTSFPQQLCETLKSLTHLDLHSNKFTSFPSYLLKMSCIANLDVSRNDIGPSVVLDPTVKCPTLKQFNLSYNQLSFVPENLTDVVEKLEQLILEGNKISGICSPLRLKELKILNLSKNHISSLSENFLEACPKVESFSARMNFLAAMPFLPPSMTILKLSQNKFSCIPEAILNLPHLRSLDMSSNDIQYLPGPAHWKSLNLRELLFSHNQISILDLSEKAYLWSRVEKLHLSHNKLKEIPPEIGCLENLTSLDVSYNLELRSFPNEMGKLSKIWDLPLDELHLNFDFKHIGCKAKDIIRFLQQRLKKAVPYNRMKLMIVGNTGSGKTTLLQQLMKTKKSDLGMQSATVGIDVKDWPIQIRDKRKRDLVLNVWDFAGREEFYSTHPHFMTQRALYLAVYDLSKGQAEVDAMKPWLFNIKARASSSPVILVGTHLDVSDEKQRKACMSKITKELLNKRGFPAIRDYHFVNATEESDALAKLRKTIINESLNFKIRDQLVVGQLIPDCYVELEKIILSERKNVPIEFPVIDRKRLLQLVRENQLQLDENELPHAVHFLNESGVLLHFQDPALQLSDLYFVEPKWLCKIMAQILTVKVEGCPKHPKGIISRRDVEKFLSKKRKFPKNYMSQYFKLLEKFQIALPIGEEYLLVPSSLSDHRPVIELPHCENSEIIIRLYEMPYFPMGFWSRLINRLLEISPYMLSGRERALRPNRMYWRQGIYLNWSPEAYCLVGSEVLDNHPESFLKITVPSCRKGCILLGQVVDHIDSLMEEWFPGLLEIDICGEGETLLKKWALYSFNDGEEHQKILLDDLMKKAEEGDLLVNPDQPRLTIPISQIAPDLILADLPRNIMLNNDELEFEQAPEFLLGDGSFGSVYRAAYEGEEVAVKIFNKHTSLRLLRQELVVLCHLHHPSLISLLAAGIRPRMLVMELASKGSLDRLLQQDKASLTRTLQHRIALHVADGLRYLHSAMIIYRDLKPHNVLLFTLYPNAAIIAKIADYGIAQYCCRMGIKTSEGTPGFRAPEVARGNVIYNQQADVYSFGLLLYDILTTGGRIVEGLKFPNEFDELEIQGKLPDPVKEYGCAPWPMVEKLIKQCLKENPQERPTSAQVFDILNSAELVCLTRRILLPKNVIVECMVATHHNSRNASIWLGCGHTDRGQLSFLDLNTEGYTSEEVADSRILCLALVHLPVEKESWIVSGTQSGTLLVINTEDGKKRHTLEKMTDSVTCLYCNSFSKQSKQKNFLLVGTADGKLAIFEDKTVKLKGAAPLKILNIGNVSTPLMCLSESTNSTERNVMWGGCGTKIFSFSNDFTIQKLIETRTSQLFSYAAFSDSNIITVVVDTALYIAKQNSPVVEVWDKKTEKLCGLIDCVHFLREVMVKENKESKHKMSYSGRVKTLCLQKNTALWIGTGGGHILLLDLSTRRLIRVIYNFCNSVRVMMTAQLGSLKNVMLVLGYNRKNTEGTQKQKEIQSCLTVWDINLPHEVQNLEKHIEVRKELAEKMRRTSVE
PAK7 (human), sequence (Q9P286 whole entry, looked up): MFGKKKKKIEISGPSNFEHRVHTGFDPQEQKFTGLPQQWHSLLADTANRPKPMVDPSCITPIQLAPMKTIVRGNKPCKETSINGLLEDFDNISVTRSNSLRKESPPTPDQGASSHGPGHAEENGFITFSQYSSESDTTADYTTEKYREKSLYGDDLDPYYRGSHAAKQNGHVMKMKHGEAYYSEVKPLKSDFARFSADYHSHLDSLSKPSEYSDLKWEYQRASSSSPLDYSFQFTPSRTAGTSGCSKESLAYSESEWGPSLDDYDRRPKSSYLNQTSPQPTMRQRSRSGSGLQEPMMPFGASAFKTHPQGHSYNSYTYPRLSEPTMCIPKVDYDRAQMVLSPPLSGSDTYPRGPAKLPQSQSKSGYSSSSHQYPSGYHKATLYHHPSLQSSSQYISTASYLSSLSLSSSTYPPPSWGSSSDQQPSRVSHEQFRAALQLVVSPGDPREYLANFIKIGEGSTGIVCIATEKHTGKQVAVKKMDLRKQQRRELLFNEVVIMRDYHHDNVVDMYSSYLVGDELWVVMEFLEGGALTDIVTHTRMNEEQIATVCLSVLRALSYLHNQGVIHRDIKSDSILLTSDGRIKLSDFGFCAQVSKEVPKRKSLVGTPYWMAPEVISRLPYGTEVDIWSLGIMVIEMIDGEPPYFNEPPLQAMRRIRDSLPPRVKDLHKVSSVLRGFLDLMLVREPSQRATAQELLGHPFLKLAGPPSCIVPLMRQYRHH
NEK6 (human), sequence (Q9HC98 whole entry, looked up): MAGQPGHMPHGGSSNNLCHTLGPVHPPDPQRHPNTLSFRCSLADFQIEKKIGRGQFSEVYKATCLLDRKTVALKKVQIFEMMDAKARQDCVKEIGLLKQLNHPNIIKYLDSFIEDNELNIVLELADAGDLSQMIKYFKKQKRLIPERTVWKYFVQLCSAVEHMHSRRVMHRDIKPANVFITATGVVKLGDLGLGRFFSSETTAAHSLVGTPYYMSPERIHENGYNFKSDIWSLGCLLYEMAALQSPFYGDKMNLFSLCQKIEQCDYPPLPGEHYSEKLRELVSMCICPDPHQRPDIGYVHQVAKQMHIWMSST
PHKG2 (human), sequence (P15735 whole entry, looked up): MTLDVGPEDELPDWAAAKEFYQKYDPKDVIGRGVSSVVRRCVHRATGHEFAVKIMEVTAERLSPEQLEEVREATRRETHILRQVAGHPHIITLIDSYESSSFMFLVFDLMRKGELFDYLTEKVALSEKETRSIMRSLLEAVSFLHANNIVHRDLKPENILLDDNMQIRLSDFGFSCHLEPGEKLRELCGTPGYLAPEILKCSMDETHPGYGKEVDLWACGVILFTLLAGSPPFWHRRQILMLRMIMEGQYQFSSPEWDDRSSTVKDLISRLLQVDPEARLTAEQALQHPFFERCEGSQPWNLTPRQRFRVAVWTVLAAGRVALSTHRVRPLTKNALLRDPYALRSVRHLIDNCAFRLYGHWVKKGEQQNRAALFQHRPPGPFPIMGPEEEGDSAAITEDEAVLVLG

Q: With Cc1cccc(-c2nc(C(C)(C)C)[nH]c2-c2ccc3c(c2)OCO3)n1 as the molecule, how does the residual activity (ADRBK2 (human)) read?
A: 96.3%

Q: What about the residual activity (AURKB (human)) of the same molecule?
A: 96.5%

Q: What about the residual activity (BMX (human)) of the same molecule?
A: 82%

Q: What about the residual activity (CDK1 CCNA2 (human)) of the same molecule?
A: 96.7%

Q: And the residual activity (CDK9 CCNK (human))?
A: 106%

Q: And the residual activity (CDK9 CCNT1 (human))?
A: 88.5%

Q: And the residual activity (CHEK2 (human))?
A: 96.4%

Q: And the residual activity (CSK (human))?
A: 102%

Q: What about the residual activity (DAPK1 (human)) of the same molecule?
A: 102%

Q: What about the residual activity (DMPK (human)) of the same molecule?
A: 102%

Q: And the residual activity (EPHA4 (human))?
A: 97.3%

Q: What about the residual activity (EPHA7 (human)) of the same molecule?
A: 81.6%

Q: And the residual activity (EPHA8 (human))?
A: 89.9%

Q: What about the residual activity (GRK5 (human)) of the same molecule?
A: 108%

Q: And the residual activity (INSR (human))?
A: 87.6%

Q: And the residual activity [1]?
A: 96.1%

Q: And the residual activity (JAK3 JH1 JH2 (human))?
A: 92.6%

Q: What about the residual activity (KIT (human)) of the same molecule?
A: 93.6%

Q: What about the residual activity (LRRK2 (human)) of the same molecule?
A: 103%

Q: What about the residual activity (MAP3K5 (human)) of the same molecule?
A: 103%

Q: And the residual activity (MAP4K2 (human))?
A: 102%

Q: What about the residual activity (MAPKAPK2 (human)) of the same molecule?
A: 103%

Q: And the residual activity (MATK (human))?
A: 100%

Q: What about the residual activity (MELK (human)) of the same molecule?
A: 92.7%

Q: And the residual activity (NEK6 (human))?
A: 109%

Q: And the residual activity (NTRK3 (human))?
A: 92.4%

Q: And the residual activity (NUAK1 (human))?
A: 97.3%

Q: And the residual activity (PAK7 (human))?
A: 92.7%

Q: What about the residual activity (PHKG2 (human)) of the same molecule?
A: 107%

Q: What about the residual activity (PIM2 (human)) of the same molecule?
A: 99.7%

Q: What about the residual activity (PRKCH (human)) of the same molecule?
A: 104%

Q: And the residual activity (PRKD1 (human))?
A: 92.3%

Q: What about the residual activity (PRKG1 (human)) of the same molecule?
A: 74.6% and 91%

Q: And the residual activity (SGK3 (human))?
A: 98%

Q: What about the residual activity (STK24 (human)) of the same molecule?
A: 100%

Q: What about the residual activity (STK3 (human)) of the same molecule?
A: 97.7%

Q: What about the residual activity (STK39 (human)) of the same molecule?
A: 107%

Q: And the residual activity (SYK (human))?
A: 87%

Q: And the residual activity (TNK2 (human))?
A: 99.3%

Q: What about the residual activity (TYRO3 (human)) of the same molecule?
A: 102%

Q: And the residual activity (YES1 (human))?
A: 97%

Q: Ic1cccc(CSc2nnc(-c3ccncc3)o2)c1 was tested. Which residual activity (ADRBK2 (human)) did it give?
A: 103%

Q: And the residual activity (AURKB (human))?
A: 99.1%

Q: And the residual activity (BMX (human))?
A: 86.6%

Q: And the residual activity (CDK1 CCNA2 (human))?
A: 99.8%

Q: And the residual activity (CDK9 CCNK (human))?
A: 105%

Q: What about the residual activity (CDK9 CCNT1 (human)) of the same molecule?
A: 109%

Q: And the residual activity (CHEK2 (human))?
A: 102%

Q: And the residual activity (CSK (human))?
A: 101%

Q: What about the residual activity (DAPK1 (human)) of the same molecule?
A: 90.3%

Q: And the residual activity (DMPK (human))?
A: 105%

Q: What about the residual activity (EPHA4 (human)) of the same molecule?
A: 105%

Q: What about the residual activity (EPHA7 (human)) of the same molecule?
A: 100%

Q: What about the residual activity (EPHA8 (human)) of the same molecule?
A: 91.5%

Q: What about the residual activity (GRK5 (human)) of the same molecule?
A: 106%

Q: And the residual activity (HIPK3 (human))?
A: 99.1%

Q: And the residual activity (INSR (human))?
A: 83.5%

Q: And the residual activity [1]?
A: 103%

Q: And the residual activity (JAK3 JH1 JH2 (human))?
A: 106%

Q: What about the residual activity (KIT (human)) of the same molecule?
A: 99.8%

Q: And the residual activity (LRRK2 (human))?
A: 91.9%

Q: What about the residual activity (MAP3K5 (human)) of the same molecule?
A: 91.7%

Q: What about the residual activity (MAP4K2 (human)) of the same molecule?
A: 112%

Q: What about the residual activity (MAPKAPK2 (human)) of the same molecule?
A: 93.5%

Q: What about the residual activity (MATK (human)) of the same molecule?
A: 94.3%

Q: And the residual activity (MELK (human))?
A: 97.7%

Q: What about the residual activity (NEK6 (human)) of the same molecule?
A: 95.4%

Q: What about the residual activity (NTRK3 (human)) of the same molecule?
A: 104%

Q: And the residual activity (NUAK1 (human))?
A: 95.1%

Q: And the residual activity (PAK7 (human))?
A: 99.3%

Q: And the residual activity (PHKG2 (human))?
A: 105%

Q: And the residual activity (PIM2 (human))?
A: 102%

Q: What about the residual activity (PRKCH (human)) of the same molecule?
A: 99.1%

Q: And the residual activity (PRKD1 (human))?
A: 97.6%

Q: What about the residual activity (PRKG1 (human)) of the same molecule?
A: 92.1% and 95.5%

Q: What about the residual activity (SGK3 (human)) of the same molecule?
A: 98.5%

Q: And the residual activity (STK24 (human))?
A: 108%

Q: And the residual activity (STK3 (human))?
A: 110%

Q: And the residual activity (STK39 (human))?
A: 101%

Q: What about the residual activity (SYK (human)) of the same molecule?
A: 92.2%

Q: And the residual activity (TNK2 (human))?
A: 101%

Q: And the residual activity (TYRO3 (human))?
A: 103%

Q: And the residual activity (YES1 (human))?
A: 95.7%

Q: With N#Cc1c[nH]c2c[nH]/c(=N\Cc3cccnc3)cc2/c1=N\c1ccc(F)c(Cl)c1 as the molecule, how does the residual activity (ADRBK2 (human)) read?
A: 100%

Q: What about the residual activity (AURKB (human)) of the same molecule?
A: 90.1%

Q: What about the residual activity (BMX (human)) of the same molecule?
A: 84%

Q: And the residual activity (CDK1 CCNA2 (human))?
A: 88%

Q: And the residual activity (CDK9 CCNK (human))?
A: 97.3%

Q: What about the residual activity (CDK9 CCNT1 (human)) of the same molecule?
A: 91.2%

Q: What about the residual activity (CHEK2 (human)) of the same molecule?
A: 90.5%

Q: What about the residual activity (CSK (human)) of the same molecule?
A: 95.2%

Q: What about the residual activity (DAPK1 (human)) of the same molecule?
A: 102%

Q: And the residual activity (DMPK (human))?
A: 104%

Q: And the residual activity (EPHA4 (human))?
A: 92.8%

Q: And the residual activity (EPHA7 (human))?
A: 83.7%

Q: And the residual activity (EPHA8 (human))?
A: 91.2%

Q: And the residual activity (HIPK3 (human))?
A: 96.5%

Q: And the residual activity (INSR (human))?
A: 85.1%

Q: What about the residual activity [1] of the same molecule?
A: 93.6%

Q: What about the residual activity (JAK3 JH1 JH2 (human)) of the same molecule?
A: 86.2%

Q: And the residual activity (KIT (human))?
A: 92.9%

Q: What about the residual activity (LRRK2 (human)) of the same molecule?
A: 86.6%

Q: What about the residual activity (MAP3K5 (human)) of the same molecule?
A: 106%

Q: What about the residual activity (MAP4K2 (human)) of the same molecule?
A: 72.2%

Q: What about the residual activity (MAPKAPK2 (human)) of the same molecule?
A: 100%

Q: And the residual activity (MATK (human))?
A: 95.9%

Q: What about the residual activity (MELK (human)) of the same molecule?
A: 88%

Q: What about the residual activity (NEK6 (human)) of the same molecule?
A: 104%

Q: And the residual activity (NTRK3 (human))?
A: 93.2%

Q: And the residual activity (NUAK1 (human))?
A: 103%

Q: And the residual activity (PAK7 (human))?
A: 98.3%

Q: And the residual activity (PHKG2 (human))?
A: 88.3%

Q: What about the residual activity (PIM2 (human)) of the same molecule?
A: 101%

Q: What about the residual activity (PRKCH (human)) of the same molecule?
A: 117%

Q: And the residual activity (PRKD1 (human))?
A: 94.5%

Q: And the residual activity (PRKG1 (human))?
A: 87.2% and 90.8%

Q: And the residual activity (SGK3 (human))?
A: 91.5%

Q: And the residual activity (STK24 (human))?
A: 95.6%

Q: And the residual activity (STK3 (human))?
A: 94.3%

Q: What about the residual activity (STK39 (human)) of the same molecule?
A: 78.6%

Q: What about the residual activity (SYK (human)) of the same molecule?
A: 94.4%

Q: And the residual activity (TNK2 (human))?
A: 89.9%

Q: What about the residual activity (TYRO3 (human)) of the same molecule?
A: 98%

Q: What about the residual activity (YES1 (human)) of the same molecule?
A: 93.6%

— the kinase profiling compilation of Christmann-Franck et al. (2016)
